Laboratory results taken from patent publication US20180214442A1, “METHODS FOR ATTENUATING OR PREVENTING MU(μ)-OPIOID RECEPTOR MEDIATED TOLERANCE AND OPIOID-INDUCED […]” (The Board of Trustees of the Leland Stanford Junior …, priority 2017, published 2018).

Columns and labels:
[1] = system: wild-type control and global MOR KO mice; assay: Chronic morphine analgesic tolerance and OIH in wild-type control and global MOR KO mice (thermal tail immersion); format: in vivo, mouse
Experimental: These treatments were given for 6 days (Days 2-7). […] (b) Untransformed, raw sensory threshold scores for same data presented in FIG. 1, panels a and b. n=6 for all groups. ★ P<0.05. Error bars are±SEM.
(§1) The tail-immersion test was used to evaluate thermal reflexive hypersensitivity (Woolf, 1984) with the temperature of the water bath being set to 48-52.5° C. The mouse was gently restrained and 2 cm of the tip of the tail was submerged in the water bath, and the latency (seconds) to reflexively withdraw the tail from the water was recorded as a positive nociceptive reflex response. A maximal cut-off of 45-60 s was set to prevent tissue damage.

[2] = system: MOR cKO mice and littermate controls; assay: Acute morphine antinociception in MOR cKO mice and littermate controls (von Frey, tail immersion, hotplate); format: in vivo, mouse
Description: (§2) To evaluate mechanical reflexive hypersensitivity (Weibel et al., 2013), we used a logarithmically increasing set of 8 von Frey filaments (Stoelting), ranging in gram force from 0.007 to 6.0 g. These were applied perpendicular to the plantar hindpaw with sufficient force to cause a slight bending of the filament. A positive response was characterized as a rapid withdrawal of the paw away from the stimulus filament within 4 s. Using the up-down statistical method (Solway et al., 2011), the 50% withdrawal mechanical threshold scores were calculated for each mouse and then averaged across the experimental groups.

[3] = system: mice with chronic constriction injury (CCI) of the sciatic nerve; settings: CCI + morphine alone 10 mg/kg
Description: (§3) Error bars are mean±SEM. Overlaid points are individual animal scores. PID=post-injury day.
as §2
(§4) To evaluate affective-motivational responses to an acute, focal thermal stimulus (Madisen et al., 2012), we applied either a single, unilateral 50 μl drop of 55° C. water or acetone (evaporative cooling) to the left hindpaw, and the duration of attending behavior was collected for up to 30 seconds after the stimulation. Only one stimulation per thermal drop was applied on a given testing session, in order to prevent behavioral sensitization that can result from multiple noxious stimulations and then averaging those responses.

wild-type C57Bl/6J mice = assay: Morphine and MNB combination in wild-type mice: nociceptive reflexes, affective-motivational behaviors, tolerance and OIH; format: in vivo, mouse
Experimental: (a) Temporal raster plot of nociception-induced sensory-reflexive and affective-motivational behaviors in an inescapable noxious environment (enclosed 52.5° C. hotplate). […] MNB doses 0.0-1.0 mg/kg, n=10; MNB 10 mg/kg, n=7 for reflexive tests and n=5 for affective-motivational tests. Best-fit lines were generated following non-linear regression analysis based on the % MPE for each mouse. One-way ANOVA+Bonferroni (left panels of b,d,f-k). ★ P<0.05. Error bars are mean±SEM. Overlaid points are individual animal scores. PID=post-injury day.
(b) Visual depiction of reflexive paw flinching behavior. (c) Latencies to the first paw flinch. (d) Number of paw flinches (see FIG. 17). (e) Visual depiction of hindpaw guarding behavior. (f) Latency to the first onset of hindpaw guarding. (g) Total duration of time spent engaged in hindpaw guarding. (h) Visual depiction of hindpaw attending. (i) Latency to the first onset of hindpaw attending. (j) Total duration of time spent engaging in hindpaw attending. (k) Visual depiction of escape jumping behavior. (1) Latency to the first jump. […] (m) Number of escape jumps. […] Error bars are±SEM.
Repeated Measures 2-way ANOVA+Bonferonni. ★ P<0.05. Error bars are mean±SEM.
as §2, §4
To evaluate affective-motivational responses to a sustained, inescapable noxious thermal stimulus, mice were placed on a 52.5° C. hot plate for 45 seconds. A high-speed camera (on the side, level with the hot plate floor) was used to capture the movement, speed, velocity, and detailed reflexive and affective-motivational behaviors of the mice, as described above.
As opposed to the standard hot-plate test, all behaviors such as reflexive paw flinching (rapid flicking of the limb), paw attending (directed licking of the limb), paw guarding (intentional lift protection of the limb), and escape jumping for the duration of the trial were scored. This allowed the analysis of the high-speed videos, blinded to plate temperature or treatment, for the total time spent engaging in affective-motivational behaviors and the number of nociceptive reflexives, as opposed to the traditional metric of merely determining the latency to the first reflexive response.

[4] = system: mice with tibia fracture and bone pinning; settings: morphine alone 10 mg/kg
Description: as §3, §3, §2, §4

[5] = system: MOR cKO mice and littermate controls; assay: 10 day chronic morphine schedule: antinociceptive tolerance and OIH in MOR cKO mice and littermate controls; format: in vivo, mouse; settings: 10 mg/kg subcutaneous once daily for 10 days
Experimental: Nociceptive behavior (pre-morphine BL timepoints only): von Frey: F1, 30=9.863, P=0.004; tail immersion: F1, 30=0.7311; hotplate: F1, 30=[…]. Antinociception (post-morphine+30 min timepoints only): von Frey: F1, 30=4.812, P=0.0367; tail immersion: F1, 30=19.74, P<0.0001; hotplate: F1, 30=17.23, P=0.0004. […] Control, n=19; MOR cKO, n=13. BL=baseline. […] Repeated Measures Two-way ANOVA+Bonferroni (a,d,g and left panels of b,c,e,f,h,i). ★ P<0.05. Error bars are mean±SEM. Overlaid points are individual animal scores. BL=baseline.
as §1
The hotplate test was used to evaluate thermal-induced affective-motivational responses (Woolf, 1984) with the plate temperature being set to 50-52.5° C.). Mice were place on the plate and the latency (seconds) to the first appearance of an attending response (lick and/or bite at one or both hindpaws) was recorded as a positive affective-motivational response. A maximal cut-off of 45 s was set to prevent tissue damage.
Next the development of morphine antinociceptive tolerance and OIH in MOR cKO mice was evaluated. […] We measured thermal and mechanical nociceptive thresholds, and affective-motivational responses to noxious thermal stimuli prior to, and 30 min after, each daily injection, to evaluate OIH and tolerance, respectively (FIG. 3, panels a, d, g).

[6] = subcutaneous morphine 10 mg/kg, acute

CN1CC[C@]23c4c5ccc(O)c4O[C@H]2[C@@H](O)C=C[C@H]3[C@H]1C5.O=S(=O)(O)O [morphine, Morphine sulfate]
OIH ([1]; global MOR KO mice, twice daily escalating 10 to 40 mg/kg schedule): no OIH | analgesic tolerance and OIH ([1]; wild-type mice, chronic morphine, fixed once daily 10 mg/kg or twice daily escalating 10 to 40 mg/kg, subcutaneous): significant tolerance and OIH | reflexive or affective-motivational antinociception ([2]; MOR cKO mice, acute intrathecal 1 μg): did not produce significant reflexive or affective-motivational antinociception | reflexive and affective-motivational antinociception ([2]; MOR cKO mice, subcutaneous 10 mg/kg): maximal reflexive and affective-motivational antinociception | antinociception ([2]; control mice, acute intrathecal 1 μg): robust antinociception | OIH [3]: No indications of OIH | antinociceptive tolerance and OIH, reflexive and affective-motivational measures (wild-type C57Bl/6J mice; morphine alone 10 mg/kg once daily for 7 days, Day 7 compared to Day 1): robust antinociceptive tolerance and OIH | affective-motivational behaviors (wild-type C57Bl/6J mice; [6]): effective at alleviating affective-motivational behaviors | nociceptive reflexes (wild-type C57Bl/6J mice; [6]): significantly reduce nociceptive reflexes | reduction of nociceptive or affective-motivational orthotrauma pain after chronic treatment ([4]; after 7 days of chronic treatment): no longer effective | antinociception, acute ([4]; first administration): acutely produced antinociception | OIH for thermal and mechanical stimuli ([5]; MOR cKO mice vs controls): significantly less OIH than controls | morphine antinociception over chronic treatment (tolerance) ([5]; MOR cKO mice): retained near full antinociceptive efficacy | morphine antinociception over chronic treatment (tolerance) ([5]; littermate controls): progressively diminished
